Each structure is given as a SMILES string. A value given as a limit tells only on which side of the number the result lay.

The test system of one assay is IL-6. As to the kind of experiment: Glucocorticoid transrepression assay, IL-6 inhibition (TR). The class given is cell-based. The following applies: Homo sapiens; Table 4; NCl-H292 cells, TNFα 10 ng/ml. On the procedure:
Human Lung epithelial cell line NCl-H292 cells were dissociated from stock flask using 0.05% trypsin/0.53 mM EDTA. Cells were suspended in complete medium and counted. Cells were plated in 96-well flat-bottom plates at 20K cells /well in 0.2 ml/well. Plates were incubated for 24-48 hours until cells were between 75-90% confluent. Medium was aspirated and replaced with medium containing various concentrations of steroids or antagonists. After 1 hour incubation at 37°, TNFα (10 ng/ml final concentration in 0.2 ml) was added and the cells incubated overnight. Control wells with and without TNF were included on each plate, as well as wells with TNF in addition to a maximum (10 μM) concentration of dexamethasone. The cell culture medium was sampled and IL-6 and IL-8 cytokine production was measured using the MSD Multi-Spot immunoassay.

For assay [1] the following is noted: symptoms associated with chronic nasal congestion; cited from earlier work.

As for `C[C@]12Cc3cnn(-c4ccc(F)cc4)c3C=C1CCC1C2[C@@H](O)C[C@@]2(C)C1CC[C@]2(OC(=O)c1ccco1)C(=O)SCc1nc2ccccc2o1` (some centres unmarked) [Compound 3], in the assay on IL-6, the Emax is over 80% and the IC50 lay within 0.06 to 20 nM.

In the assay with IL-6, `C[C@]12Cc3cnn(-c4ccc(F)cc4)c3C=C1CCC1C2[C@@H](O)C[C@@]2(C)C1CC[C@]2(OC(=O)c1ccco1)C(=O)SCc1ccc(-c2ccccn2)cc1` (some centres unmarked) [Compound 1] gave an Emax of over 80% and an IC50 of 0.06 to 20 nM.

As for `C[C@]12Cc3cnn(-c4ccc(F)cc4)c3C=C1CCC1C2[C@@H](O)C[C@@]2(C)C1CC[C@]2(OC(=O)c1ccco1)C(=O)SCc1cccc(N2CCCC2)n1` (some centres unmarked) [Compound 4], in the assay on IL-6, the Emax is over 80% and the IC50 fell in the range of 0.06 to 20 nM.

As to `C[C@]12Cc3cnn(-c4ccc(F)cc4)c3C=C1CCC1C2[C@@H](O)C[C@@]2(C)C1CC[C@]2(OC(=O)c1ccco1)C(=O)SCc1ccc2ccccc2n1` (some centres unmarked) [Compound 2], in the assay on IL-6, the Emax is over 80% and the IC50 fell in the range of 0.06 to 20 nM.

As for `Oc1cccc(Nc2ncc(F)c(Nc3cccc(O)c3)n2)c1` [Compound R112], in assay [1], the “absolute difference over placebo” value was 9%, the “improvement from baseline measurements (prior to drug initiation)” value is “up to 38%” and the “relative improvement over placebo” value is recorded as “greater than 20%”.

These data come from US20120171126A1, “NOVEL [3,2-c] HETEROARYL STEROIDS AS GLUCOCORTICOID RECEPTOR AGONISTS COMPOSITIONS AND USES THEREOF” (priority 2009, published 2012).
